Experimental data reported in EP0115821A1, “Fluoran compounds” (HODOGAYA CHEMICAL CO., LTD., priority 1983, dated 1984).

Experiment: Solubility in organic solvents
Assay type: physicochemical
Conditions: at 50°C; for solubility (% by weight) in organic solvents: Hyzole-296: Hyzole-296 (diallylethane compound); for solubility (% by weight) in organic solvents: KMC-113: KMC-113 (alkyl naphthalene compound)
From the text: The solubility of the fluoran compounds (B), (C) and (D) of the present invention in organic solvents was compared with that of the above-mentioned conventional fluoran compounds(A-1), (A-2) and (A-3), and the results are shown in Table 1.
Note: KMC-113 is an alkyl naphthalene compound manufactured by Kureha Chemical Industry Co. Ltd., and Hyzole-296 is a diallylethane compound manufactured by Nippon Petrochemical Co. Ltd. Both are organic solvents commonly used for pressure sensitive record sheets.

Compound | solubility (% by weight) in organic solvents: Hyzole-296 [% by weight] | solubility (% by weight) in organic solvents: KMC-113 [% by weight]
CCN(CC)c1ccc2c(c1)Oc1ccc(NCc3ccc(Cl)cc3)cc1C21OC(=O)c2ccccc21 (stereo not drawn) [(A-3), 2-(4-chlorobenzylamino)-6-diethylamino fluoran] | 3.10 | 1.90
CCN(CC)c1ccc2c(c1)Oc1ccc(NCc3ccccc3)cc1C21OC(=O)c2ccccc21 (stereo not drawn) [Compound (A-1), 2-benzylamino-6-diethylamino fluoran] | 1.40 | 0.44

Now from value to compound:

solubility (% by weight) in organic solvents: Hyzole-296 [% by weight] | solubility (% by weight) in organic solvents: KMC-113 [% by weight] | Compound
1.80 | 1.20 | CCN(CC)c1ccc2c(c1)Oc1ccc(NCc3ccccc3Cl)cc1C21OC(=O)c2ccccc21 (stereo not drawn) [Compound (A-2), 2-(2-chlorobenzylamino)-6-diethylamino fluoran]
4.80 | 3.30 | CCCCN(CCCC)c1ccc2c(c1)Oc1ccc(NCc3ccccc3Cl)cc1C21OC(=O)c2ccccc21 (stereo not drawn) [Compound (B), 2-(2-chlorobenzylamino)-6-di-n-butylamino-fluoran]
7.20 | 3.80 | CCCCN(CCCC)c1ccc2c(c1)Oc1ccc(NCc3ccc(Cl)cc3)cc1C21OC(=O)c2ccccc21 (stereo not drawn) [Compound (D), 2-(4-chlorobenzylamino)-6-di-n-butylamino-fluoran]
6.30 | 4.20 | CCCCN(CCCC)c1ccc2c(c1)Oc1ccc(NCc3cccc(Cl)c3)cc1C21OC(=O)c2ccccc21 (stereo not drawn) [Compound (C), 2-(3-chlorobenzylamino)-6-di-n-butylamino-fluoran]
